# Assay results taken from ChEMBL document CHEMBL3885861, “Open TG-GATES”.
# Species on record: Rattus norvegicus
# Experiment: Open TG-GATES - Regimen: Single
# Assay type: toxicity, organism-based, Sprague-Dawley
# Parameters: regimen Single, gender Male, age 6 weeks
# Details: in vivo, po, 60 mg/kg, route gavage, dose level Low; for APTT / Bas / Eos / Fbg / Hb / Ht / Lym / MCH / MCHC / MCV / Mono / Neu / PT / Plat / RBC / Ret / WBC: tissue Blood; for KIDNEY_L / KIDNEY_R / KIDNEY_TOTAL: tissue Kidney; for LIVER: tissue Liver; for A/G / ALP / ALT / AST / BUN / CRE / Ca / Cl / DBIL / GLC / IP / K / LDH / Na / PL / RALB / TBIL / TC / TG / TP / gamma-GTP: tissue Plasma
smiles,measurement,setting,value
C[C@](N)(Cc1ccc(O)c(O)c1)C(=O)O [METHYLDOPA],TERMINAL_BW,3 h,185.6 g
same,APTT,3 h,17.5 s
same,Bas,3 h,0%
same,Eos,3 h,0.6%
same,Fbg,3 h,265.2 mg/dL
same,Hb,3 h,12.9 g/dL
same,Ht,3 h,38.4%
same,Lym,3 h,79%
same,MCH,3 h,21.9 pg
same,MCHC,3 h,33.5%
same,MCV,3 h,65.4 fL
same,Mono,3 h,3.2%
same,Neu,3 h,16.6%
same,PT,3 h,12.5 s
same,Plat,3 h,123.5 x10_4/uL
same,RBC,3 h,587 x10_4/ul
same,Ret,3 h,10.7%
same,WBC,3 h,81.1 x10_2/uL
same,KIDNEY_L,3 h,0.8 g
same,KIDNEY_R,3 h,0.8 g
same,KIDNEY_TOTAL,3 h,1.6 g
same,LIVER,3 h,7.8 g
same,A/G,3 h,0.9
same,ALP,3 h,1439.4 IU/L
same,ALT,3 h,54.2 IU/L
same,AST,3 h,80 IU/L
same,BUN,3 h,9 mg/dL
same,CRE,3 h,0.1 mg/dL
same,Ca,3 h,11.5 mg/dL
same,Cl,3 h,107.2 meq/L
same,DBIL,3 h,0.02 mg/dL
same,GLC,3 h,186 mg/dL
same,IP,3 h,10.1 mg/dL
same,K,3 h,4.4 meq/L
same,LDH,3 h,60.4 IU/L
same,Na,3 h,143.8 meq/L
same,PL,3 h,142.8 mg/dL
same,RALB,3 h,2.6 g/dL
same,TBIL,3 h,0.078 mg/dL
same,TC,3 h,82.2 mg/dL
same,TG,3 h,70.2 mg/dL
same,TP,3 h,5.5 g/dL
same,gamma-GTP,3 h,1.4 IU/L
same,TERMINAL_BW,6 h,189.2 g
same,APTT,6 h,16.7 s
same,Bas,6 h,0%
same,Eos,6 h,1%
same,Fbg,6 h,250.4 mg/dL
same,Hb,6 h,13 g/dL
same,Ht,6 h,38.6%
same,Lym,6 h,78.8%
same,MCH,6 h,21.7 pg
same,MCHC,6 h,33.6%
same,MCV,6 h,64.8 fL
same,Mono,6 h,3.2%
same,Neu,6 h,16.2%
same,PT,6 h,12.4 s
same,Plat,6 h,117 x10_4/uL
same,RBC,6 h,596.4 x10_4/ul
same,Ret,6 h,10.3%
same,WBC,6 h,64 x10_2/uL
same,KIDNEY_L,6 h,0.8 g
same,KIDNEY_R,6 h,0.8 g
same,KIDNEY_TOTAL,6 h,1.6 g
same,LIVER,6 h,7.6 g
same,A/G,6 h,0.9
same,ALP,6 h,1752.4 IU/L
same,ALT,6 h,50.2 IU/L
same,AST,6 h,82 IU/L
same,BUN,6 h,6.4 mg/dL
same,CRE,6 h,0.2 mg/dL
same,Ca,6 h,11.2 mg/dL
same,Cl,6 h,107.6 meq/L
same,DBIL,6 h,0.008 mg/dL
same,GLC,6 h,184 mg/dL
same,IP,6 h,11.4 mg/dL
same,K,6 h,4.7 meq/L
same,LDH,6 h,49.8 IU/L
same,Na,6 h,144.2 meq/L
same,PL,6 h,125.8 mg/dL
same,RALB,6 h,2.5 g/dL
same,TBIL,6 h,0.064 mg/dL
same,TC,6 h,79 mg/dL
same,TG,6 h,45.6 mg/dL
same,TP,6 h,5.4 g/dL
same,gamma-GTP,6 h,1 IU/L
same,TERMINAL_BW,9 h,187.5 g
same,APTT,9 h,17.1 s
same,Bas,9 h,0%
same,Eos,9 h,0.8%
same,Fbg,9 h,248.8 mg/dL
same,Hb,9 h,12.8 g/dL
same,Ht,9 h,37.7%
same,Lym,9 h,74.4%
same,MCH,9 h,22 pg
same,MCHC,9 h,34%
same,MCV,9 h,64.7 fL
same,Mono,9 h,2.6%
same,Neu,9 h,21.2%
same,PT,9 h,12.4 s
same,Plat,9 h,117.7 x10_4/uL
same,RBC,9 h,583 x10_4/ul
same,Ret,9 h,10%
same,WBC,9 h,65.1 x10_2/uL
same,KIDNEY_L,9 h,0.8 g
same,KIDNEY_R,9 h,0.8 g
same,KIDNEY_TOTAL,9 h,1.6 g
same,LIVER,9 h,7.1 g
same,A/G,9 h,0.9
same,ALP,9 h,1707.4 IU/L
same,ALT,9 h,47 IU/L
same,AST,9 h,75.6 IU/L
same,BUN,9 h,10.6 mg/dL
same,CRE,9 h,0.1 mg/dL
same,Ca,9 h,11 mg/dL
same,Cl,9 h,107.4 meq/L
same,DBIL,9 h,0.008 mg/dL
same,GLC,9 h,201.2 mg/dL
same,IP,9 h,10.6 mg/dL
same,K,9 h,4.5 meq/L
same,LDH,9 h,51.4 IU/L
same,Na,9 h,144.2 meq/L
same,PL,9 h,111.8 mg/dL
same,RALB,9 h,2.5 g/dL
same,TBIL,9 h,0.064 mg/dL
same,TC,9 h,71.2 mg/dL
same,TG,9 h,32.4 mg/dL
same,TP,9 h,5.2 g/dL
same,gamma-GTP,9 h,1 IU/L
same,TERMINAL_BW,24 h,194.5 g
same,APTT,24 h,18.6 s
same,Bas,24 h,0%
same,Eos,24 h,1.2%
same,Fbg,24 h,242.4 mg/dL
same,Hb,24 h,13.1 g/dL
same,Ht,24 h,38.9%
same,Lym,24 h,78.4%
same,MCH,24 h,21.4 pg
same,MCHC,24 h,33.7%
same,MCV,24 h,63.6 fL
same,Mono,24 h,2.8%
same,Neu,24 h,17.4%
same,PT,24 h,12.6 s
same,Plat,24 h,115.8 x10_4/uL
same,RBC,24 h,612.6 x10_4/ul
same,Ret,24 h,9.4%
same,WBC,24 h,81.6 x10_2/uL
same,KIDNEY_L,24 h,0.8 g
same,KIDNEY_R,24 h,0.8 g
same,KIDNEY_TOTAL,24 h,1.6 g
same,LIVER,24 h,9.2 g
same,A/G,24 h,0.9
same,ALP,24 h,1854.6 IU/L
same,ALT,24 h,52 IU/L
same,AST,24 h,81.2 IU/L
same,BUN,24 h,15.6 mg/dL
same,CRE,24 h,0.2 mg/dL
same,Ca,24 h,11.4 mg/dL
same,Cl,24 h,108 meq/L
same,DBIL,24 h,0.016 mg/dL
same,GLC,24 h,189.8 mg/dL
same,IP,24 h,8 mg/dL
same,K,24 h,4.5 meq/L
same,LDH,24 h,98.4 IU/L
same,Na,24 h,143.6 meq/L
same,PL,24 h,136.2 mg/dL
same,RALB,24 h,2.6 g/dL
same,TBIL,24 h,0.064 mg/dL
same,TC,24 h,71.4 mg/dL
same,TG,24 h,85.4 mg/dL
same,TP,24 h,5.5 g/dL
same,gamma-GTP,24 h,1 IU/L
